# Data as given in US8796264B2, “2-piperazin-1-yl-4H-1,3-benzothiazin-4-one derivatives and their use for the treatment of mammalian infections” (Ecole Polytechnique Federale de Lausanne (EPFL), priority 2010, dated 2014).
# Tests used:
# M. tuberculosis H37Rv = test: In vitro inhibitory activity, resazurin reduction assay (MIC99); format: cell-based, Mycobacterium tuberculosis; conditions: strain not stated
# [1] = test system: M. tuberculosis strain H37Rv; test: In vivo efficacy in the acute murine TB model; parameters: species or system mice
# [2] = test system: M. tuberculosis strain H37Rv; test: In vivo efficacy in the chronic murine TB model; parameters: species or system mice; conditions: INH 25 mg/kg
# [3] = Intrinsic clearance in liver microsomes; conditions: 1 μg/mL with 0.1 mg microsomes, HPLC
# Procedure: Next, PBTZ169 and BTZ043 were incubated at a concentration of 1 μg/mL with 0.1 mg of human or mouse liver microsomes (Invitrogen) in order to measure their intrinsic clearance. The relative amounts of the original compound remaining over time were determined by HPLC.
# A549 cells = test: Cytotoxicity TC50, resazurin reduction assay; format: cell-based, human; conditions: 72 h incubation
# Procedure: (§1) The selectivity index (SI) of a compound provides a good indication of the potential tolerability of a drug candidate. […] The TC50 of PBTZ169 and BTZ043 were established using two human cell lines, the hepatocyte line HepG2 and the pneumocyte line A549, using the resazurin reduction assay after incubation with varying amounts of the compounds for 72 h. […] The respective MICs were 1 and 2 ng/ml for PBTZ169 and BTZ043. […] In clinical terms, PBTZ169 should be safer and better tolerated than BTZ043.
# HepG2 cells = test: Cytotoxicity TC50, resazurin reduction assay; format: cell-based, human; conditions: 72 h incubation
# Procedure: as §1
# [4] = test system: NfnB-overproducing mutant MN39; test: Susceptibility of the NfnB-overproducing mutant MN39; format: cell-based, Mycobacterium smegmatis; conditions: M. smegmatis NfnB-overproducing mutant
# From the text: A second resistance mechanism to BTZ043 has been described in Mycobacterium smegmatis due to overproduction of the nitroreductase NfnB (Manina, G., et al. Mol Microbiol 2010. epub 2010/07/14).
smiles,measurement,setting,value
"C[C@H]1COC2(CCN(c3nc(=O)c4cc(C(F)(F)F)cc([N+](=O)[O-])c4s3)CC2)O1 [BTZ043, 2-[(2S)-2-methyl-1,4-dioxa-8-azaspiro[4.5]dec-8-yl]-8-nitro-6-(trifluoromethyl)-4H-1,3-benzothia-zin-4-one, reference compound]",MIC used for the selectivity index,M. tuberculosis H37Rv,0.002 mg/L
same,Log of CFU lungs,"[1]; 4 weeks treatment, intragastric 5 times a week, compounds and BTZ043 50 mg/kg, isoniazid 25 mg/kg",4.78
same,Medium longevity (days) M ± SEM,"[1]; compounds and BTZ043 50 mg/kg, isoniazid 25 mg/kg",Alive at sacrifice
same,"Result of treatment, macroscopic condition of the lungs",[1]; treatment for prescribed time,marked improvement
same,Efficacy in reducing CFU compared to INH,[2],slightly inferior to INH
same,"Intrinsic Clearance (Clint), Human liver microsomes",[3],16.2 μL/min/mg of protein
same,"Intrinsic Clearance (Clint), Mouse liver microsomes",[3],10.3 μL/min/mg of protein
same,TC50 against A549 cells,A549 cells,16.3 mg/L
same,TC50 against HepG2 cells,HepG2 cells,6.3 mg/L
same,Increase in the MIC for MN39 relative to the wild type parental strain,[4],6 fold
